Patent US9708314B2, “Heterocyclic amide compound” (NISSAN CHEMICAL INDUSTRIES, LTD., priority 2013, dated 2017)

How the values were obtained:
Type in all cases: in vivo
[1] = test system: Echinochloa oryzacola Vasing.; test: Test Example 2: herbicidal activity, application during weed generation in submerged conditions; details: Eighteenth Table; application herbicide amount 320 g/ha
How it was run: (§1)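 Paddy-type pot test: flooded soil, 4 cm depth, greenhouse 25–30 °C. Emulsion formulation diluted in water, applied to water surface at 1–2 leaf stage; rate expressed as g/ha. Read-out at 3 wk, 0–5 score.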

[2] = test system: Scirpus juncoides; test: as above; details: Eighteenth Table; application herbicide amount 320 g/ha
How it was run: as §1

[3] = test system: Monochoria vaginalis; test: as above; details: Eighteenth Table; application herbicide amount 320 g/ha
How it was run: as §1

[4] = test system: directly sowed Oryza sativa; test: Test Example 3: effect on crop by application to foliage (Wagner pot, water depth 0.1-0.5 cm); details: Nineteenth Table; application to foliage; application herbicide amount 320 g/ha
How it was run: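 Visual 0–5 rating of herbicidal ratio, taken 3 weeks after foliar spray of a diluted emulsion formulation at rates expressed as g/ha. Plants had been sown in alluvial soil under 0.1–0.5 cm water and grown 14 days at 25–30 °C under glass before application.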

[5] = test system: Glycine max; test: Test Example 4: effect on crop by application to foliage (diluvial soil, plastic box); details: Application herbicide amount 320 g/ha; effect on crop
How it was run: (§2)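 Read-out is a 0–5 visual grade of herbicidal ratio (5: ≥90%, almost withered; 0: ≤5%) taken three weeks after treatment. Compound was applied as a diluted emulsion to stem and leaf parts of 14-day greenhouse-grown plants (25° C. to 30° C.) at rates expressed as g/ha.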

[6] = test system: directly sowed Oryza sativa; test: as above; details: Application herbicide amount 320 g/ha; effect on crop
How it was run: as §2

[7] = test system: Triticum aestivum; test: as above; details: Application herbicide amount 320 g/ha; effect on crop
How it was run: as §2

[8] = test system: Beta vulgaris ssp. vulgaris; test: as above; details: Application herbicide amount 320 g/ha; effect on crop
How it was run: as §2

[9] = test system: Brassica campestris L.; test: as above; details: Application herbicide amount 320 g/ha; effect on crop
How it was run: as §2

| Compound | A (Echinochloa oryzicola Vasing.) herbicidal ratio grade [1] | B (Scirpus juncoides) herbicidal ratio grade [2] | C (Monochoria vaginalis) herbicidal ratio grade [3] | b (effect on crop grade) [4] | c [5] | d [6] | e [7] | f [8] | g [9] |
| --- | --- | --- | --- | --- | --- | --- | --- | --- | --- |
| COc1cc(OC)cc(-c2nnc3c(C(=O)Nc4nnc(C)o4)ccc(C(F)(F)F)n23)c1 [1-070] | 5 (Herbicidal ratio of 90% or more (almost completely withered)) | 5 (Herbicidal ratio of 90% or more (almost completely withered)) | 5 (Herbicidal ratio of 90% or more (almost completely withered)) | 0 (Herbicidal ratio of 5% or less (almost no effect)) | 0 (Herbicidal ratio of 5% or less (almost no effect)) | 4 (Herbicidal ratio of 70% or more and less than 90%) | 0 (Herbicidal ratio of 5% or less (almost no effect)) | 4 (Herbicidal ratio of 70% or more and less than 90%) | 3 (Herbicidal ratio of 40% or more and less than 70%) |
| Cc1nnc(NC(=O)c2ccc(C(F)(F)F)n3c(-c4cc(Cl)cc(Cl)c4)nnc23)o1 [1-071] | 3 (Herbicidal ratio of 40% or more and less than 70%) | 5 (Herbicidal ratio of 90% or more (almost completely withered)) | 4 (Herbicidal ratio of 70% or more and less than 90%) | 0 (Herbicidal ratio of 5% or less (almost no effect)) | 0 (Herbicidal ratio of 5% or less (almost no effect)) | 0 (Herbicidal ratio of 5% or less (almost no effect)) | 0 (Herbicidal ratio of 5% or less (almost no effect)) | 2 (Herbicidal ratio of 20% or more and less than 40%) | 0 (Herbicidal ratio of 5% or less (almost no effect)) |
| COCC[S+]([O-])c1nnc2c(C(=O)Nc3nnc(C)o3)ccc(C(F)(F)F)n12 (stereo not drawn) [1-073] | 2 (Herbicidal ratio of 20% or more and less than 40%) | 2 (Herbicidal ratio of 20% or more and less than 40%) | 1 (Herbicidal ratio of 5% or more and less than 20%) | 4 (Herbicidal ratio of 70% or more and less than 90%) | 0 (Herbicidal ratio of 5% or less (almost no effect)) | 4 (Herbicidal ratio of 70% or more and less than 90%) | 3 (Herbicidal ratio of 40% or more and less than 70%) | 5 (Herbicidal ratio of 90% or more (almost completely withered)) | 3 (Herbicidal ratio of 40% or more and less than 70%) |
| C=CC[S+]([O-])c1nnc2c(C(=O)Nc3nnc(C)o3)ccc(C(F)(F)F)n12 (stereo not drawn) [1-074] | 2 (Herbicidal ratio of 20% or more and less than 40%) | 0 (Herbicidal ratio of 5% or less (almost no effect)) | 0 (Herbicidal ratio of 5% or less (almost no effect)) | 0 (Herbicidal ratio of 5% or less (almost no effect)) | 0 (Herbicidal ratio of 5% or less (almost no effect)) | 3 (Herbicidal ratio of 40% or more and less than 70%) | 0 (Herbicidal ratio of 5% or less (almost no effect)) | 4 (Herbicidal ratio of 70% or more and less than 90%) | 3 (Herbicidal ratio of 40% or more and less than 70%) |
| Cc1nnc(NC(=O)c2ccc(C(F)(F)F)n3c(N(C)C)nnc23)o1 [1-076] | 2 (Herbicidal ratio of 20% or more and less than 40%) | 0 (Herbicidal ratio of 5% or less (almost no effect)) | 4 (Herbicidal ratio of 70% or more and less than 90%) | 3 (Herbicidal ratio of 40% or more and less than 70%) | 3 (Herbicidal ratio of 40% or more and less than 70%) | 3 (Herbicidal ratio of 40% or more and less than 70%) | 3 (Herbicidal ratio of 40% or more and less than 70%) | 5 (Herbicidal ratio of 90% or more (almost completely withered)) | 4 (Herbicidal ratio of 70% or more and less than 90%) |
| CSC(C)c1nnc2c(C(=O)Nc3nnc(C)o3)ccc(C(F)(F)F)n12 (stereo not drawn) [1-078] | 4 (Herbicidal ratio of 70% or more and less than 90%) | 3 (Herbicidal ratio of 40% or more and less than 70%) | 3 (Herbicidal ratio of 40% or more and less than 70%) | 5 (Herbicidal ratio of 90% or more (almost completely withered)) | 4 (Herbicidal ratio of 70% or more and less than 90%) | 4 (Herbicidal ratio of 70% or more and less than 90%) | 4 (Herbicidal ratio of 70% or more and less than 90%) | 5 (Herbicidal ratio of 90% or more (almost completely withered)) | 4 (Herbicidal ratio of 70% or more and less than 90%) |
| Cc1nnc(NC(=O)c2ccc(C(F)(F)F)n3c(C(C)[S+](C)[O-])nnc23)o1 (stereo not drawn) [1-079] | 4 (Herbicidal ratio of 70% or more and less than 90%) | 3 (Herbicidal ratio of 40% or more and less than 70%) | 4 (Herbicidal ratio of 70% or more and less than 90%) | 5 (Herbicidal ratio of 90% or more (almost completely withered)) | 1 (Herbicidal ratio of 5% or more and less than 20%) | 5 (Herbicidal ratio of 90% or more (almost completely withered)) | 4 (Herbicidal ratio of 70% or more and less than 90%) | 5 (Herbicidal ratio of 90% or more (almost completely withered)) | 5 (Herbicidal ratio of 90% or more (almost completely withered)) |
| Cc1nnc(NC(=O)c2ccc(C(F)(F)F)n3c(C(C)S(C)(=O)=O)nnc23)o1 (stereo not drawn) [1-080] | 5 (Herbicidal ratio of 90% or more (almost completely withered)) | 3 (Herbicidal ratio of 40% or more and less than 70%) | 4 (Herbicidal ratio of 70% or more and less than 90%) | 5 (Herbicidal ratio of 90% or more (almost completely withered)) | 4 (Herbicidal ratio of 70% or more and less than 90%) | 5 (Herbicidal ratio of 90% or more (almost completely withered)) | 5 (Herbicidal ratio of 90% or more (almost completely withered)) | 5 (Herbicidal ratio of 90% or more (almost completely withered)) | 5 (Herbicidal ratio of 90% or more (almost completely withered)) |
| CSCCc1nnc2c(C(=O)Nc3nnc(C)o3)ccc(C(F)(F)F)n12 [1-083] | 2 (Herbicidal ratio of 20% or more and less than 40%) | 2 (Herbicidal ratio of 20% or more and less than 40%) | 2 (Herbicidal ratio of 20% or more and less than 40%) | 2 (Herbicidal ratio of 20% or more and less than 40%) | 1 (Herbicidal ratio of 5% or more and less than 20%) | 4 (Herbicidal ratio of 70% or more and less than 90%) | 1 (Herbicidal ratio of 5% or more and less than 20%) | 5 (Herbicidal ratio of 90% or more (almost completely withered)) | 4 (Herbicidal ratio of 70% or more and less than 90%) |
| Cc1nnc(NC(=O)c2ccc(C(F)(F)F)n3c(CC[S+](C)[O-])nnc23)o1 (stereo not drawn) [1-084] | 2 (Herbicidal ratio of 20% or more and less than 40%) | 1 (Herbicidal ratio of 5% or more and less than 20%) | 0 (Herbicidal ratio of 5% or less (almost no effect)) | 2 (Herbicidal ratio of 20% or more and less than 40%) | 1 (Herbicidal ratio of 5% or more and less than 20%) | 4 (Herbicidal ratio of 70% or more and less than 90%) | 0 (Herbicidal ratio of 5% or less (almost no effect)) | 4 (Herbicidal ratio of 70% or more and less than 90%) | 4 (Herbicidal ratio of 70% or more and less than 90%) |
| Cc1nnc(NC(=O)c2ccc(C(F)(F)F)n3c(CCS(C)(=O)=O)nnc23)o1 [1-085] | 3 (Herbicidal ratio of 40% or more and less than 70%) | 2 (Herbicidal ratio of 20% or more and less than 40%) | 2 (Herbicidal ratio of 20% or more and less than 40%) | 3 (Herbicidal ratio of 40% or more and less than 70%) | 3 (Herbicidal ratio of 40% or more and less than 70%) | 4 (Herbicidal ratio of 70% or more and less than 90%) | 3 (Herbicidal ratio of 40% or more and less than 70%) | 4 (Herbicidal ratio of 70% or more and less than 90%) | 4 (Herbicidal ratio of 70% or more and less than 90%) |
